Among the data in ChEMBL document CHEMBL3864139, “Phenylindenone isomers as divergent modulators of p38α MAP kinase” (Bioorg Med Chem Lett, 2016) are Activity and IC50 values, retold here.

Test [1] concerns the target T1, Mitogen-activated protein kinase 14 (Homo sapiens, UniProt Q16539). Kind of test: Activation of human recombinant full length GST-tagged MAPK14 expressed in Escherichia coli assessed as increase in MAPK14 phosphorylation at 10 to 10000 nM in presence of 500 uM of ATP by direct Z-LITE assay.
Test [2] has as its target T1, Mitogen-activated protein kinase 14. Kind of test: Activation of human recombinant full length GST-tagged MAPK14 expressed in Escherichia coli assessed as increase in MAPK14 phosphorylation at 10 uM in presence of 500 uM of ATP by direct Z-LITE assay relative to control.
Test [3] shares this target. Kind of test: Inhibition of human recombinant full length GST-tagged MAPK14 phosphorylation expressed in Escherichia coli in presence of 100 uM of ATP by direct Z-LITE assay.
The target is the same in test [4]. In words: Inhibition of human recombinant full length GST-tagged MAPK14 phosphorylation expressed in Escherichia coli in presence of 500 uM of ATP by direct Z-LITE assay.

The structures appear in SMILES notation. Activity calls are given as the source filed them. The rule behind the calls is not given here.

T1 sequence (Q16539 whole entry): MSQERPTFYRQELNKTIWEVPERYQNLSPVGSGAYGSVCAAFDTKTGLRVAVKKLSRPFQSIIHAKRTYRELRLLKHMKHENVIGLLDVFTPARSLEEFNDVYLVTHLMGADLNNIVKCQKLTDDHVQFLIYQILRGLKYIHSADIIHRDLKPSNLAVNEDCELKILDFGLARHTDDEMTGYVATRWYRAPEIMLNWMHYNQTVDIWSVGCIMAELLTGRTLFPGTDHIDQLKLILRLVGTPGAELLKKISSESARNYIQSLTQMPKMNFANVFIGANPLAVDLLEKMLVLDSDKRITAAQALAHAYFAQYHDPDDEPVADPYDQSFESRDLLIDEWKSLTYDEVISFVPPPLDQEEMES

Regarding `O=C1C(c2ccncc2)=C(c2ccc(F)cc2)c2ccccc21`, in test [1], the result was Active. Further, the Activity in test [2] lay within 40 to 50%.
For orientation: IC50 means the concentration at which inhibition is half-maximal. Turning to `O=C1C(c2ccc(F)cc2)=C(c2ccncc2)c2ccccc21`, the IC50 in test [3] came out at 899 nM; in test [4], 1350 nM.
